From patent publication US20050175550A1, “Compositions for oral use” (priority 2000, published 2005) come the findings set out here.

In brackets after ≈: the same amount, converted by molar mass.

Holding throughout (type): cell-based
Experiment [1] deals with Bacillus subtilis ATCC6633. Description: MIC by agar plate dilution method on standard strains (Example 3). On the procedure:
(§1) Drug solutions at a concentration 10 times as high as the maximum applicable concentration were prepared as original solutions of test drugs given in Table 2 (as to solvents used for this purpose, reference should be made also to Table 2). Serial two-fold dilution series of the original solutions were prepared at desired stages, and 1 ml each of the diluted drug solutions was added to 9 ml of media given in Table 3 to prepare drug plates. […] • 1) Bacterial solutions stocked at −80° C. were inoculated on agar media (as to media used, reference should be made to Table 3), and then incubated at 37° C. overnight. When desired, subculturing was conducted once more on the same agar media (by overnight incubation at 37° C.). • 2) Colonies growing on the agar media were sampled by a platinum loop, suspended in liquid media (reference should be made to Table 3) and statically incubated at 37° C. for 18 hours (preculturing). • 3) Preculturing was continued up to McFarland 0.5 (McFarland 0.5=about 10^8 CFU/ml), and then the culture broths were diluted with Muellar Hinton Broth to make 10^6 CFU/ml. 5 μl each of the diluted solutions were inoculated on the above-mentioned drug plates by an inoculator Microplanter. […] Thus, bacterial solutions at about 10^8 CFU/ml can be easily prepared by use of McFarland 0.5. Bacterial solutions at such a turbidity are commercially available, but can be easily prepared.

Experiment [2] relates to Moraxella (Branhamella) catarrhalis ATCC43617. The experiment is described as above. As to the method:
as §1

The subject of experiment [3] is Streptococcus pneumoniae ATCC6306. Described as above. On the procedure:
as §1

The test system of experiment [4] is Escherichia coli ATCC25922. The description is as above. As to the method: as §1
For experiment [5], the system named is Micrococcus luteus ATCC9341. The description is as above. As to the method: as §1
The test system of experiment [6] is Staphylococcus aureus ATCC6538P. The experiment is described as above. On the procedure:
as §1

The test system of experiment [7] is Haemophilus influenzae ATCC33533. The experiment is described as above. As to the method:
as §1

Experiment [8] relates to Moraxella (Branhamella) catarrhalis ATCC25240. The description is as above. On the procedure:
as §1

In experiment [9] the test system is Streptococcus pyogenes ATCC12353. The description is as above. As to the method: as §1
Experiment [10] has as its system Haemophilus influenzae ATCC49247. Described as above. On the procedure:
as §1

Experiment [11] has as its system Fusobacterium nucleatum ATCC10953. Kind of experiment: Antibacterial test, propagation by turbidity in broth (Example 1). To be noted: medium containing 0.1 mM or 1.0 mM trifluoromethionine, FIG. 4. As to the method: (§2) 3 ml of GAM broth (Nissui Medical) containing 5 μg/ml of hemin and 1 μg/ml of menadione was separately incubated with one platinum loop each of subcultures of strains Porphyromonas gingivalis W83, ATCC33277 and M1217, and strain Fusobacterium nucleatum ATCC10953, followed by incubation at 37° C. under anaerobic conditions (10% CO2, 10% H2, 80% N2) overnight. The same fresh medium as above was inoculated with the resulting culture in such an amount that an absorbance at 550 nm of the inoculated medium could be about 0.15, followed by incubation under the same condition as above. Furthermore, the above-mentioned strains were incubated in the above-mentioned medium further containing 0.1 mM or 1.0 mM trifluoromethionine. Absorbance at 550 nm of the individual cultures was measured with time to evaluate propagation of bacteria through the turbidity of the medium. Results are shown in FIG. 1 to 4 (A to D), where the results of using the trifluoromethionine-free medium are shown by □ curve, and those of using media containing 0.1 mM and 1.0 mM trifluoromethionine, respectively, are shown by ▪ and ● curves.

For experiment [12], the system named is Porphyromonas gingivalis W83, ATCC33277 and M1217. The description is as above. To be noted: medium containing 0.1 mM or 1.0 mM trifluoromethionine, FIGS. 1-3. As to the method:
as §2

Experiment [13] concerns Actinobacillus actinomycetemcomitans Y4. The experiment is described as above. The settings on record: medium containing 0.1 mM or 1.0 mM trifluoromethionine, FIG. 5.
Experiment [14] deals with Staphylococcus epidermidis ATCC12228. Kind of experiment: MIC by agar plate dilution method on standard strains (Example 3). On the procedure:
(§3) Minimum growth-inhibiting concentrations of trifluoromethionine and other antibacterial drugs on standard strains were determined by an agar plate dilution method according to the standard method of Japanese Society of Chemotherapy.
(§4) Drug solutions at a concentration 10 times as high as the maximum applicable concentration were prepared as original solutions of test drugs given in Table 2 (as to solvents used for this purpose, reference should be made also to Table 2). Serial two-fold dilution series of the original solutions were prepared at desired stages, and 1 ml each of the diluted drug solutions was added to 9 ml of media given in Table 3 to prepare drug plates. Concentration range of the individual drugs used are as follows: trifluoromethionine: 400-0.025 μg/ml (15 stages), tetracycline: 100-0.025 μg/ml (13 stages), and clarithromycin: 100-0.025 μg/ml (13 stages).
(§5) • 1) Bacterial solutions stocked at −80° C. were inoculated on agar media (as to media used, reference should be made to Table 3), and then incubated at 37° C. overnight. When desired, subculturing was conducted once more on the same agar media (by overnight incubation at 37° C.). • 2) Colonies growing on the agar media were sampled by a platinum loop, suspended in liquid media (reference should be made to Table 3) and statically incubated at 37° C. for 18 hours (preculturing). • 3) Preculturing was continued up to McFarland 0.5 (McFarland 0.5=about 10^8 CFU/ml), and then the culture broths were diluted with Muellar Hinton Broth to make 10^6 CFU/ml. 5 μl each of the diluted solutions were inoculated on the above-mentioned drug plates by an inoculator Microplanter.
(§6) Thus, bacterial solutions at about 10^8 CFU/ml can be easily prepared by use of McFarland 0.5. Bacterial solutions at such a turbidity are commercially available, but can be easily prepared. McFarland 0.5 can be obtained by adding 0.5 ml of an aqueous 0.048 mol/l barium chloride solution to 99.5 ml of 1% v/v (0.18 mol/l) sulfuric acid. • 4) The individual bacteria were incubated at 37° C. for 18-20 hours and then the growth was determined in the same manner as in Example 2 to obtain minimum growth-inhibiting concentrations.

Experiment [15] relates to Staphylococcus epidermidis ATCC29886. Described as above. As to the method: as §3, §4, §5, §6
The subject of the next experiment is Escherichia coli BL 21. Description: Antibacterial test, propagation by turbidity in broth (Example 1). The settings on record: medium containing 0.1 mM or 1.0 mM trifluoromethionine, FIG. 6.

Turning to `N[C@@H](CCSC(F)(F)F)C(=O)O` [TFM, Trifluoromethionine], the MIC in [1] is greater than 400 µg/mL; in experiment [2], 100 µg/mL (≈ 492 µM); in experiment [3], greater than 400 µg/mL; in [4], greater than 400 µg/mL; in [5], greater than 400 µg/mL; in [6] it was greater than 400 µg/mL. The MIC is 100 µg/mL (≈ 492 µM) in [7]; 25 µg/mL (≈ 123 µM) in [8]; greater than 400 µg/mL in experiment [9]; 50 µg/mL (≈ 246 µM) in experiment [10]; greater than 400 µg/mL in experiment [14]; greater than 400 µg/mL in [15]. Also, the “antibacterial effect (propagation of bacteria, absorbance at 550 nm)” value was “remarkable antibacterial effects” in experiment [11], “remarkable antibacterial effects” in experiment [12], “remarkable antibacterial effects” in experiment [13] and “failed to show a significant antibacterial effect” in the experiment on Escherichia coli BL 21.
